Measurements as given in ChEMBL document CHEMBL5291721, “A preclinical secondary pharmacology resource illuminates target-adverse drug reaction associations of marketed drugs” (Nat Commun, 2023).

How the values were obtained:
[1] = target: T1, Amine oxidase [flavin-containing] A (Homo sapiens, UniProt P21397); format: functional
T1 sequence (P21397 whole entry): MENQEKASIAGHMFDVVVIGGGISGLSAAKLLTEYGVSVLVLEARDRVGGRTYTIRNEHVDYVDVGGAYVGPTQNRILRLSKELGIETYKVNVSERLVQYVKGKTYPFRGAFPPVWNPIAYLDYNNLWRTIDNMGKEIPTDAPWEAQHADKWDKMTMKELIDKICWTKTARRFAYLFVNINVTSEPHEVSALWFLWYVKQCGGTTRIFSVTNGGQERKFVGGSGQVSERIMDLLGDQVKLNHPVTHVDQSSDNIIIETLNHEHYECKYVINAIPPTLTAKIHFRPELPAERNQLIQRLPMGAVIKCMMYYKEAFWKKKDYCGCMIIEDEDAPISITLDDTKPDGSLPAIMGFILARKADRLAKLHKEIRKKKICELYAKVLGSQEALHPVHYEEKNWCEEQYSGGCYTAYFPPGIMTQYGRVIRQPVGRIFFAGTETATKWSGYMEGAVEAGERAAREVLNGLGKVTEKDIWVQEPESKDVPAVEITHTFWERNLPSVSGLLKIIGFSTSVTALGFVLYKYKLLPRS

[2] = target: 5-hydroxytryptamine receptor 2A (Homo sapiens, UniProt P28223); format: functional, cell-based
Sequence of 5-hydroxytryptamine receptor 2A (P28223 whole entry): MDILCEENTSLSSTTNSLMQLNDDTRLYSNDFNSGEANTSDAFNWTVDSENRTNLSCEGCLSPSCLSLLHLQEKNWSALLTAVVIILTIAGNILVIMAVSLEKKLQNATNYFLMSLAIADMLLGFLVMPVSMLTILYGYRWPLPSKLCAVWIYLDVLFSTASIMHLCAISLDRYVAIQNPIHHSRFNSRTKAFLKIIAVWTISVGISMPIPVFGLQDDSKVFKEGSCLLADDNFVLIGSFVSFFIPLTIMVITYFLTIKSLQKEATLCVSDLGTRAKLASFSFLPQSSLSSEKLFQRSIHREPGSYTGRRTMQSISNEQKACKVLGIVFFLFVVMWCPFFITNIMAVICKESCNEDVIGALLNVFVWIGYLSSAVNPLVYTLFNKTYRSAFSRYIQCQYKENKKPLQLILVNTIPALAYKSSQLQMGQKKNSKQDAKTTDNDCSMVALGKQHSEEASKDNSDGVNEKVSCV

[3] = target: Growth hormone secretagogue receptor type 1 (Homo sapiens, UniProt Q92847)
Sequence of Growth hormone secretagogue receptor type 1 (Q92847 whole entry): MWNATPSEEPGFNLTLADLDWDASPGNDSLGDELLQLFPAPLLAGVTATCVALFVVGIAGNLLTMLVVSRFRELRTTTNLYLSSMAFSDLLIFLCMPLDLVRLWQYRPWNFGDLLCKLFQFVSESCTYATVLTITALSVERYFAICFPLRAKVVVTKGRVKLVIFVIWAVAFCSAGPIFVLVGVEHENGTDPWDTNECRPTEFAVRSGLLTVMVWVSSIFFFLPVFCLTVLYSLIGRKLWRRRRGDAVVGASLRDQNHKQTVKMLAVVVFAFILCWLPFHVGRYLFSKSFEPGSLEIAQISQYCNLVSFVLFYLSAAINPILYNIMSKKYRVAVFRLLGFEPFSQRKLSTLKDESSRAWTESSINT

[4] = target: T2, Muscarinic acetylcholine receptor M2 (Homo sapiens, UniProt P08172); format: functional, cell-based
T2 sequence (P08172 whole entry): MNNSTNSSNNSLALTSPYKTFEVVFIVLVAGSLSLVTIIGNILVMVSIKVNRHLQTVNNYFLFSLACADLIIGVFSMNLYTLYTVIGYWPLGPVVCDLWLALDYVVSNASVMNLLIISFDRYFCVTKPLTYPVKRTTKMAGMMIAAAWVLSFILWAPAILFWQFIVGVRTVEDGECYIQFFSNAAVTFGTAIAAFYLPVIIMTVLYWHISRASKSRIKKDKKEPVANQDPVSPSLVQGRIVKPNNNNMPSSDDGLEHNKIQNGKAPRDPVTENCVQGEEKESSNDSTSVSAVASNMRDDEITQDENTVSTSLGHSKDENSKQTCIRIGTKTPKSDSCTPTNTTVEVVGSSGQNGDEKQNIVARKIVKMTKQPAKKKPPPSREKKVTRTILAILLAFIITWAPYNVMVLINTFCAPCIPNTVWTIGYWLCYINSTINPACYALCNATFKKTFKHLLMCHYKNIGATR

Histamine H1 receptor = Histamine H1 receptor (Homo sapiens, UniProt P35367)
Sequence of Histamine H1 receptor (P35367 whole entry): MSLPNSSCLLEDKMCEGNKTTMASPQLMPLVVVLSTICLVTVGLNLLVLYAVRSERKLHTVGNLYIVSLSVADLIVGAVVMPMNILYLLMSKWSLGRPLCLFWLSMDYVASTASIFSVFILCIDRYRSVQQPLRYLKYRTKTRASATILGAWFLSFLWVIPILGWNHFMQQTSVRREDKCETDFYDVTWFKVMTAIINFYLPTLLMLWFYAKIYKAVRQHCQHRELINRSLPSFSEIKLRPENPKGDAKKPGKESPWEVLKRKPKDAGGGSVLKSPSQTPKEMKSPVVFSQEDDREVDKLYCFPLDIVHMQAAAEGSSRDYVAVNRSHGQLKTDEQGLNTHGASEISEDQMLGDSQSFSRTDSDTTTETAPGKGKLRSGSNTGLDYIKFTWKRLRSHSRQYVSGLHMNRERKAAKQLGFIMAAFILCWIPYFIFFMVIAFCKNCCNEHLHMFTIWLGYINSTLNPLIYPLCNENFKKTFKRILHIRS

Cannabinoid receptor 1 [5] = target: T3, Cannabinoid receptor 1 (Homo sapiens, UniProt P21554); format: functional, cell-based
T3 sequence (P21554 whole entry): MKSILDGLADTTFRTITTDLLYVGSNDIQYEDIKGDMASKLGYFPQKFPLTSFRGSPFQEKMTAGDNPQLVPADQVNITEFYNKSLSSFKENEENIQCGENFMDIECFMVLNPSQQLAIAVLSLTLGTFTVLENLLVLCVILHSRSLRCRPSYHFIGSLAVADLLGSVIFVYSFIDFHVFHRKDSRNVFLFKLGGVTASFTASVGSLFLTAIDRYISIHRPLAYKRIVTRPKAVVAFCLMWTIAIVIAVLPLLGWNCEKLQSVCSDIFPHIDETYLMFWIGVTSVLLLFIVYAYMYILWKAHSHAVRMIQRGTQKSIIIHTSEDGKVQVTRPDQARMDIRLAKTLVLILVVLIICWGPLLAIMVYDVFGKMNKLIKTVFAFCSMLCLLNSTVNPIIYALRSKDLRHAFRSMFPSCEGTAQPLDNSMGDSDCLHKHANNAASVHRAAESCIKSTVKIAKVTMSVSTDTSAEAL

Endothelin-1 receptor = target: T4, Endothelin-1 receptor (Homo sapiens, UniProt P25101)
T4 sequence (P25101 whole entry): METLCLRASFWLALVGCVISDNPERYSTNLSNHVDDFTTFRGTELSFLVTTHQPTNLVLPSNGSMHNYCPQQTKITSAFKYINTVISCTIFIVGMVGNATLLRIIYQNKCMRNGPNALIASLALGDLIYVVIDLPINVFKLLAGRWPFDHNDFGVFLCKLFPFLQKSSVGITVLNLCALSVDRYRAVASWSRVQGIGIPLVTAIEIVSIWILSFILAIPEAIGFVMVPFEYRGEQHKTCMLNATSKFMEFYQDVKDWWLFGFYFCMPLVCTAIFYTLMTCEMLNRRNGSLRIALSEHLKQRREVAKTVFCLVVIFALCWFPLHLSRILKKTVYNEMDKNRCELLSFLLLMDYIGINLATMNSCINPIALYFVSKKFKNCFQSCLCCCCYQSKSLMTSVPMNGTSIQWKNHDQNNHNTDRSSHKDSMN

Cannabinoid receptor 1 [6] = target: T3, Cannabinoid receptor 1; format: functional, cell-based; remark: listed apart in the source
[7] = target: Sodium-dependent dopamine transporter (Homo sapiens, UniProt Q01959)
Sequence of Sodium-dependent dopamine transporter (Q01959 whole entry): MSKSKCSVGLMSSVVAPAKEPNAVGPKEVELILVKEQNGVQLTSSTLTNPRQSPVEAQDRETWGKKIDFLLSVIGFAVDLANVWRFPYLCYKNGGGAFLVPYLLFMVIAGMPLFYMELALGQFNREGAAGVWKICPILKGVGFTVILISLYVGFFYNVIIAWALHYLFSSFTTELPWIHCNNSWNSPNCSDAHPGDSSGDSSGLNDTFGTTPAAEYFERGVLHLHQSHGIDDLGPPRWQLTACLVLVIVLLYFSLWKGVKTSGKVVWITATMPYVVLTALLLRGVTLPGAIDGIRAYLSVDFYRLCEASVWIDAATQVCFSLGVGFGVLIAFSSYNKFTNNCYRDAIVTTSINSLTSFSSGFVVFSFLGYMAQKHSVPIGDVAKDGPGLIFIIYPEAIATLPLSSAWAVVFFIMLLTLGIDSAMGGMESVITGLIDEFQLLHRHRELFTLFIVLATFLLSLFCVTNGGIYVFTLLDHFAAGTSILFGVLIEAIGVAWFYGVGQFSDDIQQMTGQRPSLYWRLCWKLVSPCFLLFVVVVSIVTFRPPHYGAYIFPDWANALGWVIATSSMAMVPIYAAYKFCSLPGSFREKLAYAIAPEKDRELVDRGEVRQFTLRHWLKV

Melanocortin receptor 3 = Melanocortin receptor 3 (Homo sapiens, UniProt P41968)
Sequence of Melanocortin receptor 3 (P41968 whole entry): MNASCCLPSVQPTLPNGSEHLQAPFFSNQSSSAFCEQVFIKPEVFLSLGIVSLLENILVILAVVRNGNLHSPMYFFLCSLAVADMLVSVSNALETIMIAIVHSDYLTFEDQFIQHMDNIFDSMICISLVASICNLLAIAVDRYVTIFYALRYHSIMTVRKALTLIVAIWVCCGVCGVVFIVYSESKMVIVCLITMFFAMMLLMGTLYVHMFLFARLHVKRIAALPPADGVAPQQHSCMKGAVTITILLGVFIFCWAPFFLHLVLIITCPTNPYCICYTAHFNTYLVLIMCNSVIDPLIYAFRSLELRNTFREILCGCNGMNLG

Cannabinoid receptor 1 [8] = target: T3, Cannabinoid receptor 1
Melanocortin receptor 4 = Melanocortin receptor 4 (Homo sapiens, UniProt P32245)
Sequence of Melanocortin receptor 4 (P32245 whole entry): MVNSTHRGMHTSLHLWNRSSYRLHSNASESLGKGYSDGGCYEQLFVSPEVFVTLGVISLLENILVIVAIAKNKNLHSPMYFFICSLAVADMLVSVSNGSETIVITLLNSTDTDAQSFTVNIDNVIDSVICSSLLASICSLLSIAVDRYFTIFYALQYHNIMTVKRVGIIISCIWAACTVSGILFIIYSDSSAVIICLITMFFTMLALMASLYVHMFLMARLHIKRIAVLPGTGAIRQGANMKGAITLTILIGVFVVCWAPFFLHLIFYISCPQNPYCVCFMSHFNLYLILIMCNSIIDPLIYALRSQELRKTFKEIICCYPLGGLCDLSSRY

[9] = target: T5, Alpha-1A adrenergic receptor (Homo sapiens, UniProt P35348)
T5 sequence (P35348 whole entry): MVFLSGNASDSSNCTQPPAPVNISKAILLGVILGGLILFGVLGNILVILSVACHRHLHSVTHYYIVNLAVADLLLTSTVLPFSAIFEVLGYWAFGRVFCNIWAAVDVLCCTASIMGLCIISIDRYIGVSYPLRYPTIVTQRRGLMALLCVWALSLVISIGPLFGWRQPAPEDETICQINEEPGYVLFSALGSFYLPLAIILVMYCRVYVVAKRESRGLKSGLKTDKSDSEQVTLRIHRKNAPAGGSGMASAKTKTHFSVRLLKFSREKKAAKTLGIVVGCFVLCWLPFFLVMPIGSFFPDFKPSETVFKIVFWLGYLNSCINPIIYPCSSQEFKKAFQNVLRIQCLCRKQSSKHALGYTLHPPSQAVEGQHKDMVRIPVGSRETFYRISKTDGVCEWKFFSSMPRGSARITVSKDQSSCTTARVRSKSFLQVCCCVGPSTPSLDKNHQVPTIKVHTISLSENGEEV

[10] = target: T6, 5-hydroxytryptamine receptor 1A (Homo sapiens, UniProt P08908); format: functional, cell-based
T6 sequence (P08908 whole entry): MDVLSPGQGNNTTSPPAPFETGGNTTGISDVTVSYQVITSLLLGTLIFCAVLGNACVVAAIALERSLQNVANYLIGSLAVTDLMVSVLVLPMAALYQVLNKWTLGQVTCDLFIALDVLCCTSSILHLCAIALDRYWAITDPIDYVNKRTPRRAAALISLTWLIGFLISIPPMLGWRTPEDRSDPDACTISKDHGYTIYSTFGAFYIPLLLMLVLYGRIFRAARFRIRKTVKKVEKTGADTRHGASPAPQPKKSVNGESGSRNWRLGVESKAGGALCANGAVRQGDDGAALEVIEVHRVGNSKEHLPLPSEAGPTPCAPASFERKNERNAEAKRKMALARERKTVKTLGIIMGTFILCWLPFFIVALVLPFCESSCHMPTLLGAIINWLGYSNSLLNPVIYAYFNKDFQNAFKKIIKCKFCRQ

[11] = target: Beta-2 adrenergic receptor (Homo sapiens, UniProt P07550); format: functional, cell-based
Sequence of Beta-2 adrenergic receptor (P07550 whole entry): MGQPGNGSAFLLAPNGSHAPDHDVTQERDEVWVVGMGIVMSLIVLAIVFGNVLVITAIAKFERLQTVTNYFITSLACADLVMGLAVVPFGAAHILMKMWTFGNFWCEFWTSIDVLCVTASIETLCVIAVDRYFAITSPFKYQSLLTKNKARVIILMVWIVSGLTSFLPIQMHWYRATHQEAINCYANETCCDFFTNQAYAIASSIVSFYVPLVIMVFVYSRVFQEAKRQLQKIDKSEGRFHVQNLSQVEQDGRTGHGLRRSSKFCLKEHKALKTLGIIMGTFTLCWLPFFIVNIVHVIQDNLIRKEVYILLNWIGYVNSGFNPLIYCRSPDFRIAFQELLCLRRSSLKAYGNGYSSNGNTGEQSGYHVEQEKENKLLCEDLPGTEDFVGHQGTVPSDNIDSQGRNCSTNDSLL
Further: assay procedure not described here.

SMILES | AC50 [1] | AC50 [2] | AC50 [3] | AC50 [4] | AC50 (Histamine H1 receptor) | AC50 (Cannabinoid receptor 1 [5]) | AC50 (Endothelin-1 receptor) | AC50 (Cannabinoid receptor 1 [6]) | AC50 [7] | AC50 (Melanocortin receptor 3) | AC50 (Cannabinoid receptor 1 [8]) | AC50 (Melanocortin receptor 4) | AC50 [9] | AC50 [10] | AC50 [11]
CC(=O)SC[C@@H](C)C(=O)N1CCC[C@H]1C(=O)N[C@@H](Cc1ccccc1)C(=O)O | > 30 µM | > 30 µM | > 30 µM | > 30 µM | > 30 µM | > 30 µM | > 30 µM | > 30 µM | > 30 µM | > 30 µM |  |  |  |  | 
OCc1cc(C(O)CNCCCCCCOCCCCc2ccccc2)ccc1O (configuration not stated) [SALMETEROL] | > 10 µM |  | > 30 µM |  | > 10 µM | > 30 µM |  | > 30 µM | 0.845 µM | > 30 µM | > 10 µM | > 30 µM |  |  | 
Nc1cc(-c2ccncc2)c[nH]c1=O [INAMRINONE] | > 10 µM |  | > 30 µM | > 10 µM |  | > 30 µM |  | > 30 µM | > 30 µM | > 30 µM | > 10 µM | > 30 µM | > 10 µM | > 10 µM | > 30 µM
CN(C(=O)c1c(O)c2ccccc2n(C)c1=O)c1ccccc1 [ROQUINIMEX] | > 30 µM | > 30 µM |  |  | > 30 µM |  |  |  | > 30 µM | > 30 µM |  |  |  |  | 
Cc1ncc2n1-c1ccc(Cl)cc1C(c1ccccc1F)=NC2 [MIDAZOLAM] | > 10 µM |  | > 30 µM | > 10 µM | > 10 µM |  |  |  | > 30 µM | > 30 µM | > 10 µM | > 30 µM | > 10 µM |  | > 30 µM
CC(=O)[C@]1(O)Cc2c(O)c3c(c(O)c2[C@@H](O[C@H]2C[C@H](N)[C@H](O)[C@H](C)O2)C1)C(=O)c1ccccc1C3=O [IDARUBICIN] | > 30 µM |  | 7.7 µM |  |  |  | > 30 µM |  | 15 µM |  |  |  |  |  | > 30 µM
O=C(O)CCNC(=O)c1ccccc1 [BETAMIPRON] | > 30 µM |  | > 30 µM | > 30 µM |  | > 30 µM | > 30 µM | > 30 µM | > 30 µM | > 30 µM |  |  |  | > 30 µM | > 30 µM
C/C(=C\C(=O)OCCCCCCCCC(=O)O)C[C@@H]1OC[C@H](C[C@@H]2O[C@H]2[C@@H](C)[C@H](C)O)[C@@H](O)[C@H]1O [MUPIROCIN] | > 10 µM |  | > 10 µM | > 10 µM | > 10 µM |  |  |  | > 30 µM | > 10 µM | > 10 µM | > 10 µM | > 10 µM | > 10 µM | 
CC(=O)OCC(=O)[C@@]1(O)[C@H](C)C[C@H]2[C@@H]3CCC4=CC(=O)C=C[C@]4(C)[C@@]3(F)[C@@H](O)C[C@@]21C [DEXAMETHASONE ACETATE] | > 10 µM |  | > 30 µM | > 10 µM | > 10 µM | > 30 µM | > 30 µM | 20 µM | > 30 µM | > 30 µM |  | > 30 µM | > 10 µM | > 10 µM | 
NC1CCN(c2nc3c(cc2F)c(=O)c(C(=O)O)cn3-c2ccc(F)cc2F)C1 (configuration not stated) [TOSUFLOXACIN] | > 30 µM |  | > 30 µM | > 30 µM |  | > 30 µM | > 30 µM | > 30 µM | > 30 µM | > 30 µM |  |  |  |  | 
Cn1c(=O)cc(N2CCC[C@@H](N)C2)n(Cc2ccccc2C#N)c1=O [ALOGLIPTIN] |  |  | > 30 µM |  | > 10 µM |  | > 30 µM |  | > 10 µM | > 30 µM | > 10 µM | > 30 µM |  |  | 
COc1cc2ncnc(Nc3ccc(F)c(Cl)c3)c2cc1NC(=O)/C=C/CN1CCCCC1 [DACOMITINIB ANHYDROUS] | > 30 µM | > 30 µM |  | > 30 µM | > 30 µM |  |  |  | 15 µM | 27 µM |  |  |  |  | 
Cn1cnc2c(F)c(Nc3ccc(Br)cc3Cl)c(C(=O)NOCCO)cc21 [SELUMETINIB] | > 10 µM |  |  |  | > 10 µM |  |  |  | > 30 µM | > 30 µM |  |  | > 10 µM |  | 
NC(=O)CN1CCCC1=O | > 30 µM |  | > 30 µM | > 30 µM |  | > 30 µM | > 30 µM | > 30 µM | > 30 µM | > 30 µM |  |  |  |  | > 30 µM
CCN(CC)CCNC(=O)c1cc(S(C)(=O)=O)ccc1OC [TIAPRIDE] | > 30 µM |  | > 30 µM | > 30 µM |  | > 30 µM | > 30 µM | > 30 µM | > 30 µM | > 30 µM |  |  |  | > 30 µM | 
CCN1CCCC1CNC(=O)c1cc(S(=O)(=O)CC)c(N)cc1OC (configuration not stated) [AMISULPRIDE] | > 30 µM |  | > 30 µM | > 30 µM | 30 µM | > 30 µM | > 30 µM | > 30 µM |  | > 30 µM |  |  | > 30 µM | > 30 µM | > 30 µM
O=C1CN=C(c2ccccc2)c2cc([N+](=O)[O-])ccc2N1 [NITRAZEPAM] | > 10 µM |  | > 10 µM | > 10 µM |  |  |  |  | > 10 µM | > 10 µM | > 10 µM | > 10 µM | > 30 µM | > 10 µM | 
CCN(CC)CCN1C(=O)CN=C(c2ccccc2F)c2cc(Cl)ccc21 [FLURAZEPAM] | > 10 µM |  | 22.9 µM | > 10 µM | > 10 µM |  |  |  | > 30 µM | > 30 µM | > 10 µM | > 30 µM | > 10 µM |  | > 30 µM
